Columns and labels:
tumor growth = settings: murine model ovarian cancer, Xu et al. 2012; cited from earlier work
thioredoxin = target: T1, thioredoxin (Homo sapiens, UniProt P10599); assay: Insulin reductase assay, thiol isomerase selectivity; format: biochemical; settings: 10-fold IC50, FIG. 2
T1 sequence (P10599 1-105): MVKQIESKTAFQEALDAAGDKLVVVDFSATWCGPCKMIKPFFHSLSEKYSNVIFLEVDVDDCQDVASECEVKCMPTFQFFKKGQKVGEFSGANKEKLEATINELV
Procedure: (§1) The thiol isomerase-catalyzed reduction of insulin was assayed by measuring the increase in turbidity as detected at an optical density (OD) of 650 nm using a Spectramax M3 (Molecular Devices, Sunnyvale, Calif.). The validation assay consisted of 175 nM of PDI in a solution containing 100 mM potassium phosphate (pH 7.4) containing 0.2 mM bovine insulin, 2 mM EDTA, and 0.3 mM DTT (all purchased from Sigma Aldrich, St. Louis, Mo.), inhibitors were used at the concentrations indicated. The reaction was performed at 25° C. for one hour and thirty minutes. For assays of thiol isomerase selectivity, 11 nM PDI, ERp57 or Thioredoxin, or 33 nM ERpS were assayed in similar buffer conditions as described above and inhibitors were used at the indicated concentration. The reaction was performed at 37° C. for forty-five minutes. For assays of isolated domains studies, 400 nM protein was used, except for a, a′ and ab, in which 800 nM protein was used. The assay was performed in similar buffer conditions as described above. Bepristat 2a and N-(2,4-Dimethoxyphenyl)-N-(1-oxo-2-propyn-1-yl)-2-(2-thienyl)glycyl-glycine ethyl ester (PACMA-31) were used at a final concentration of 15 μM in these studies.

ERp5 = target: T2, ERp5 (Homo sapiens, UniProt Q15084); assay: as above; format: biochemical; settings: 10-fold IC50, FIG. 2
T2 construct: recombinant His-tagged full-length ERp5, ERp72 and PDI domain fragments; His; made in house; host or cells: Escherichia coli Origami B (DE3), pET-15b
T2 sequence (Q15084 20-440): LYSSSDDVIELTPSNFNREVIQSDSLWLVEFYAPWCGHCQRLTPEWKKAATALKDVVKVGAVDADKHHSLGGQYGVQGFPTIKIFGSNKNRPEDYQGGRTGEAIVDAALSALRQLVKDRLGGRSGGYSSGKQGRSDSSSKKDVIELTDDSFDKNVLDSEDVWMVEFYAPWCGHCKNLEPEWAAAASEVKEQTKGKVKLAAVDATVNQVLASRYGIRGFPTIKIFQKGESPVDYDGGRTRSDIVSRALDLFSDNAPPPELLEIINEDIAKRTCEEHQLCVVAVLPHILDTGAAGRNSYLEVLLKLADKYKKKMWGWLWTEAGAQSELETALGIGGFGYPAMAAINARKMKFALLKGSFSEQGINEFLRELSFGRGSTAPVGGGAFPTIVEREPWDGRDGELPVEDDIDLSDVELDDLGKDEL
Procedure: as §1

human wild-type PDI = target: T3, human wild-type PDI (Homo sapiens, UniProt P07237); assay: Redox potential determination by differential cysteine alkylation and mass spectrometry
T3 construct: FLAG; made in house; host or cells: Escherichia coli Origami B (DE3), pET-15b
Procedure: The redox potentials of the a (Cys53-Cys56) and a′ (Cys397-Cys400) active-site dithiols/disulfides of human wild-type PDI in the absence or presence of bepristat 2b were determined by differential cysteine alkylation and mass spectrometry. Recombinant PDI (5 μM) was incubated in the absence or presence of bepristat 2b (50 μM) in argon-flushed phosphate-buffered saline containing 0.1 mM EDTA, 0.2 mM oxidized glutathione (GSSG, Sigma) and various concentrations of reduced glutathione (GSH, Sigma) for 18 h at room temperature. Microcentrifuge tubes were flushed with argon prior to sealing to prevent oxidation by ambient air during the incubation period. […]
The fraction of reduced active-site disulfide bond was measured from the relative ion abundance of peptides containing ^12C-IPA and ^13C-IPA. […] The area was calculated using the automated peak detection function built into the software. […] The results were expressed as the ratio of reduced to oxidized protein and fitted to equation 1: […]
where R is the fraction of reduced protein at equilibrium, B is the baseline fraction of the cysteine in the population that is in the reduced state and Keq is the equilibrium constant. The standard redox potential (E^0′) of the PDI active-site disulfides were calculated using the Nernst equation (equation 2): […]

T3 sequence (P07237 18-508): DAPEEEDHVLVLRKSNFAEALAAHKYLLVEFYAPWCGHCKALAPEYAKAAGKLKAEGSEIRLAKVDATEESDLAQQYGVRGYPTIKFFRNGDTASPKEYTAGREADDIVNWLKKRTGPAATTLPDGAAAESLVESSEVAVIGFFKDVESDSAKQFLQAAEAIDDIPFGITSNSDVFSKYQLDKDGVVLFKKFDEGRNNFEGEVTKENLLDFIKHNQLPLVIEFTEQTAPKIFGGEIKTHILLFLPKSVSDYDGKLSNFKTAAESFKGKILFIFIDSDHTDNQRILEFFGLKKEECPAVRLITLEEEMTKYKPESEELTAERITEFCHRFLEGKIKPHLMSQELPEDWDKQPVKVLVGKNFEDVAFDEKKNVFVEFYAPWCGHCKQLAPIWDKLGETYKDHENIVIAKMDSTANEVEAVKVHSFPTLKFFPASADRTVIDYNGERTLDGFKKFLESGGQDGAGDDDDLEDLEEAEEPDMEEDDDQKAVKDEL

inhibition of reductase activity of thioredoxin (thioredoxin)	inhibition of reductase activity of ERp5 (ERp5)	SMILES	tumor growth (tumor growth)	active site disulfide bond formation under equilibrium conditions (human wild-type PDI)
demonstrated inhibitory activity	demonstrated inhibitory activity	C#CC(=O)N(c1ccc(OC)cc1OC)C(C(=O)NCC(=O)OCC)c1cccs1 (stereo not shown) [PACMA-31, N-(2,4-Dimethoxyphenyl)-N-(1-oxo-2-propyn-1-yl)-2-(2-thienyl)glycyl-glycine ethyl ester, reference compound]	impairs tumor growth	
		CCOC(=O)c1c(CNCCN(CC)CC)n(-c2ccccc2)c2cc(Br)c(O)cc12 [bepristat 2a]		impairs active site disulfide bond formation

Reference: patent US20180370912A1, “COMPOUNDS AND METHODS FOR TREATING DISEASES MEDIATED BY PROTEIN DISULFIDE ISOMERASE” (Beth Israel Deaconess Medical Center, Inc., priority 2017, published 2018)
